Measurements: patent publication US6375979B2 (Somerset Pharmaceuticals, Inc., priority 1995, dated 2002)
Values joined by “and” are separate entries in the source; they are usually repeats but may differ in a detail not shown here. Equal values may be shown once. Read-outs that look alike come from different tables or passages of the source.

What was measured:
interleukin-2 production = assay: Concanavalin A-induced interleukin-2 production by spleen cells of treated old rats; format: in vivo, rat; conditions: for IL-2 % control / IL-2 U/ml mean: ip daily 60 days
Experimental: The present experiments utilized a rat model to examine the ability of R(−)DMS and S(+)DMS to restore immunological function. Rats were divided into the following experimental groups:
(§1) Rats were administered saline or test agent ip, daily for 60 days. They were then maintained for an additional “wash out” period of 10 days during which time no treatment was given. At the end of this time, animals were sacrificed and their spleens were removed. The spleen cells were then assayed for a variety of factors which are indicative of immune system function. Specifically, standard tests were employed to determine the following:
2) in vitro concanavalin A-induced production of interleukin-2;

[1] = system: cultured rat mesencephalic cells; assay: Medium change (glutamate receptor dependent) model of cell death: [3H]-dopamine uptake; conditions: for more axonal growth and terminal axonal survival compared to untreated control cells / 3H-Dopamine uptake as a percentage + SEM: 10 μM; for more axonal growth and terminal axonal survival compared to untreated control cells / 3H-Dopamine uptake as a percentage + SEM / Dopamine uptake, % control, Mean / Dopamine uptake, % control, individual cultures / Dopamine uptake, counts/min, Mean / Dopamine uptake, counts/min, individual cultures: medium change model; for 3H-Dopamine uptake as a percentage + SEM: control = 100; for neuron protection by measurement of dopamine uptake (FIG. 15): glutamate receptor dependent model
Experimental: Preparations are then added to 10 ml Ecoscint (National Diagnostics) and counted in a scintillation spectrometer.
In these experiments, cells were plated and allowed to stabilize for several days.

[2] = target: T1, dopamine re-uptake system (Rattus norvegicus, UniProt P23977); assay: Inhibition of dopamine re-uptake in rat neostriatal synaptosome preparation; format: biochemical
T1 construct: (synaptosome preparation) was obtained form fresh rat neostriatal brain tissue; from tissue; host or cells: rat neostriatum, synaptosome preparation
Experimental: An in vitro nerve terminal preparation (synaptosome preparation) was prepared using fresh rat neostriatal tissue.
FIG. 19: Determination of IC50 Values for Inhibition of Dopamine Re-Uptake.
An in vitro nerve-terminal preparation (synaptosome preparation) was obtained form fresh rat neostriatal brain tissue. Transport by dopamine nerve-terminals was estimated by measuring the uptake of tritiated dopamine.

rat spleens = assay: Histological immunofluorescence of spleen innervation in old rats; format: in vivo; conditions: ip daily 60 days
Experimental: as §1
Histological immunofluorescence studies show a dramatic loss of innervation in rat spleens with age.

MAO-A = target: T2, MAO-A (Cavia porcellus, UniProt H0UVA2); assay: MAO-A inhibition in guinea pig hippocampal homogenates in vitro; format: biochemical; set-up: by human platelets and/or guinea pig hippocampal homogenates; from tissue; host or cells: guinea pig hippocampus homogenate; conditions: for reduction in potency compared to selegiline (value in parentheses): MAO-A IC50, guinea pig hippocampal cortex
T2 sequence (H0UVA2 1-461): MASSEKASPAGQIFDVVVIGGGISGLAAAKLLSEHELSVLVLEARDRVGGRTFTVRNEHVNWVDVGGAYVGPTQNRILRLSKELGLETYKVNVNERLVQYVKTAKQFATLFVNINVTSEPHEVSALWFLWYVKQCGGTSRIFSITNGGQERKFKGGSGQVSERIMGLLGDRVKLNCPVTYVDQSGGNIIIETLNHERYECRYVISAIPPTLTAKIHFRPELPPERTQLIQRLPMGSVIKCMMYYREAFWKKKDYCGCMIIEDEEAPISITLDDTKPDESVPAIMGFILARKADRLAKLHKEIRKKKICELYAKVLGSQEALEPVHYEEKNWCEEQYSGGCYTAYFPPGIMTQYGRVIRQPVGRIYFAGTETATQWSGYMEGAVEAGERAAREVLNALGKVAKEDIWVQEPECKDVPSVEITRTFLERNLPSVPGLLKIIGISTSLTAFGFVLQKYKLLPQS
Description: Human platelet MAO is comprised exclusively of the type-B isoform of the enzyme. […] The present study also examined the two enantiomers of DMS for inhibitory activity with respect to the MAO-A and MAO-B in guinea pig hippocampal tissue. Guinea pig brain tissue is an excellent animal model for studying brain dopamine metabolism, the enzyme kinetics of the multiple forms of MAO and the inhibitory properties of novel agents that interact with these enzymes. The multiple forms of MAO in this animal species show similar kinetic properties to those found in human brain tissue. Finally, the test agents were administered to guinea pigs and the extent to which they might act as inhibitors of brain MAO in vivo was assessed.
In vitro: The test system utilized the in vitro conversion of specific substrates of MAO-A (^14C-serotonin) and MAO-B (^14C-phenylethylamine) by human platelets and/or guinea pig hippocampal homogenates. […] A percent inhibition was calculated from these values.

γ-interferon production = γ-interferon production by concanavalin A-stimulated spleen cells of treated old rats; format: in vivo, rat; conditions: for IFN-γ % control / IFN-γ U/ml mean: old rats, ip daily 60 days, 1.0 mg/kg (for DMS enantiomers)
Experimental: Rats were divided into the following experimental groups:
as §1
1) in vitro production of γ-interferon by concanavalin A-stimulated spleen cells;

wobbler mouse = assay: Wobbler mouse model of motor neuron disease; format: in vivo; conditions: 0.1 mg/kg daily intra-peritoneal for 30 days; range in parentheses
Experimental: The ability of the enantiomers of DMS to prevent neurological deterioration was examined by administering the agents to the wobbler mouse, an animal model of motor neuron diseases, particularly amyotrophic lateral sclerosis (ALS).
A 0.1 mg/kg dose of R(−)DMS, S(+)DMS or placebo was administered to wobbler mice by daily intra-peritoneal injection for a period of 30 days in a randomized, double-blind study. At the end of this time mice were examined for grip strength, running time, resting locomotive activity and graded for semi-quantitative paw posture abnormalities, and semi-quantitative walking abnormalities. The investigators who prepared and administered the test drugs to the animals were different than those who analyzed behavioral changes.
Assays and grading were performed essentially as described in Mitsumoto et al., Ann. Neurol. 36:142-148 (1994). Grip strength of the front paws of a mouse was determined by allowing the animal to grasp a wire with both paws. […] The reading on the dynamometer at the point of release is taken as a measure of grip strength.
Running time is defined as the shortest time necessary to traverse a specified distance, e.g. 2.5 feet and the best time of several trials is recorded. […]
Locomotive activity is determined by transferring animals to an examination area in which the floor is covered with a square grid. […]

[3] = 1.0 mg/kg (for DMS enantiomers)

T1 sequence (P23977 whole entry): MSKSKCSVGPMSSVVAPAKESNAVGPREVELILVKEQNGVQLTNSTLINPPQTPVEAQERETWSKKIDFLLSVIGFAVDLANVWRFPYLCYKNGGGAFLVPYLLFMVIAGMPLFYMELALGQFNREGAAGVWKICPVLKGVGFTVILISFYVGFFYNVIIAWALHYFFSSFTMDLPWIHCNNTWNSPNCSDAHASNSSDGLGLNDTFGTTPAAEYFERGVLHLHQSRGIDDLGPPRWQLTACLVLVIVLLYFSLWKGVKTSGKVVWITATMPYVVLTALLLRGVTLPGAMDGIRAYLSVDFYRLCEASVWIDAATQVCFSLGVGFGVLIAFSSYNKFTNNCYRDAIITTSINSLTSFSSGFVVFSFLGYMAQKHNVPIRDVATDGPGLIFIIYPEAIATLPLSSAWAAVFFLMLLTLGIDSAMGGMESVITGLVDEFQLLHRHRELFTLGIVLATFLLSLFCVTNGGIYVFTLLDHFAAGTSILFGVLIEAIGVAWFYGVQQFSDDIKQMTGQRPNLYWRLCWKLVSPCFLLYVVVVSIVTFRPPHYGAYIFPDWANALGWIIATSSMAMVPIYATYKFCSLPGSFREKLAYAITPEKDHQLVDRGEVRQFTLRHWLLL

C#CCN[C@@H](C)Cc1ccccc1 (single isomer, unassigned) [S(+)DMS, ent-desmethylselegiline]
IL-2 production after treatment (interleukin-2 production): not enhanced
IL-2 % control (interleukin-2 production; [3]): 291%
IL-2 U/ml mean (interleukin-2 production; [3]): 57.12 U/ml
more axonal growth and terminal axonal survival compared to untreated control cells [1]: 134%
3H-Dopamine uptake as a percentage + SEM [1]: 234 ± 38.36%
times more potent than either selegiline or R(−)DMS at inhibiting dopamine re-uptake [2]: 4-5 times
3H-Dopamine uptake, % Reduction x ± SEM ([2]; 1 μM): 24.1 ± 11.7%
3H-Dopamine uptake, % Reduction x ± SEM ([2]; 10 μM): 47.0 ± 3.1%
3H-Dopamine uptake, % Reduction x ± SEM ([2]; 100 μM): 15.3 ± 7.7%
innervation in the spleens, histological examination (rat spleens): did not show any effect
IC50 (MAO-A): 100 µM
inhibition at 1 µM (MAO-A; 1 μM, guinea pig hippocampus, read-out: MAO-A % Inhibition x = SEM): 3.3 ± 1.5%
inhibition at 3 µM (MAO-A; 3 μM, guinea pig hippocampus, read-out: MAO-A % Inhibition x = SEM): 4.3 ± 1%
inhibition at 10 µM (MAO-A; 10 μM, guinea pig hippocampus, read-out: MAO-A % Inhibition x = SEM): 10.5 ± 1.47%
inhibition at 100 µM (MAO-A; 100 μM, guinea pig hippocampus, read-out: MAO-A % Inhibition x = SEM): 48.4 ± 1.8%
inhibition at 1000 µM (MAO-A; 1 mM, guinea pig hippocampus, read-out: MAO-A % Inhibition x = SEM): 92.7 ± 2.5%
inhibition at 10000 µM (MAO-A; 10 mM, guinea pig hippocampus, read-out: MAO-A % Inhibition x = SEM): 99.6 ± 0.35%
reduction in potency compared to selegiline (value in parentheses) (MAO-A): 40
γ-interferon levels in old rats after administration (γ-interferon production; most dramatic increases at 1.0 mg/kg body weight): restoration of γ-interferon levels
IFN-γ % control (γ-interferon production): 261%
IFN-γ U/ml mean (γ-interferon production): 918 U/ml
Mean Grip Strength (gm) (wobbler mouse): 14 (7-20) gm

desmethylselegiline [R(−)DMS]
IL-2 production after treatment (interleukin-2 production): not enhanced
IL-2 % control (interleukin-2 production; [3]): 223%
IL-2 U/ml mean (interleukin-2 production; [3]): 43.7 U/ml
IL-2 U/ml mean (interleukin-2 production; […] (for R(−)DMS by group order)): 64.54 U/ml
IL-2 U/ml mean (interleukin-2 production; dose not printed in row, by group order […]): 55.17 U/ml
Dopamine uptake, % control, Mean ([1]; 0.5 μM): 141.9%
Dopamine uptake, % control, individual cultures ([1]; 0.5 μM): 142.3% and 152.4% and 142.6% and 130.4%
Dopamine uptake, counts/min, Mean ([1]; 0.5 μM): 29800.75 counts/min
Dopamine uptake, counts/min, individual cultures ([1]; 0.5 μM): 29885 counts/min and 32002 counts/min and 29934 counts/min and 27382 counts/min
neuron protection by measurement of dopamine uptake (FIG. 15) ([1]; 5 μM): neuron protection
Dopamine uptake, % control, Mean ([1]; 5.0 μM): 153.7%
Dopamine uptake, % control, individual cultures ([1]; 5.0 μM): 155.2% and 142.1% and 173.2% and 144.5%
Dopamine uptake, counts/min, Mean ([1]; 5.0 μM): 32280 counts/min
Dopamine uptake, counts/min, individual cultures ([1]; 5.0 μM): 32577 counts/min and 29831 counts/min and 36370 counts/min and 30342 counts/min
more axonal growth and terminal axonal survival compared to untreated control cells [1]: 40%
3H-Dopamine uptake as a percentage + SEM [1]: 140.82 ± 26.20%
neuron protection by measurement of dopamine uptake (FIG. 15) ([1]; 50 μM): neuron protection
Dopamine uptake, % control, Mean ([1]; 50 μM): 185.5%
Dopamine uptake, % control, individual cultures ([1]; 50 μM): 178.3% and 186.7% and 186.3% and 190.6%
Dopamine uptake, counts/min, Mean ([1]; 50 μM): 38944.75 counts/min
Dopamine uptake, counts/min, individual cultures ([1]; 50 μM): 37440 counts/min and 39200 counts/min and 39126 counts/min and 40013 counts/min
3H-Dopamine uptake, % Reduction x ± SEM ([2]; 1 μM): 10.7 ± 2.8%
3H-Dopamine uptake, % Reduction x ± SEM ([2]; 10 μM): 20.1 ± 3.1%
3H-Dopamine uptake, % Reduction x ± SEM ([2]; 100 μM): 11.5 ± 1.0%
3H-Dopamine uptake, % Reduction x ± SEM ([2]; 100 μM (last row of each agent)): 51.3 ± 2.6%
innervation in the spleens, histological examination (rat spleens): significant increase in innervation
MAO-A % Inhibition x = SEM (MAO-A; 300 nM, guinea pig hippocampus): 4.8 ± 2.1%
MAO-A % Inhibition x = SEM (MAO-A; 1 μM, guinea pig hippocampus): 4.2 ± 1.5%
MAO-A % Inhibition x = SEM (MAO-A; 3 μM, guinea pig hippocampus): 10.5 ± 2.0%
MAO-A % Inhibition x = SEM (MAO-A; 10 μM, guinea pig hippocampus): 19.0 ± 1.3%
MAO-A % Inhibition x = SEM (MAO-A; 100 μM, guinea pig hippocampus): 64.2 ± 1.5%
MAO-A % Inhibition x = SEM (MAO-A; 1 mM, guinea pig hippocampus): 96.5 ± 1.2%
reduction in potency compared to selegiline (value in parentheses) (MAO-A): 20
IC50 (MAO-A; read-out: IC50 for MAO-A in Guinea Pig Hippocampal Cortex): 50 µM
IFN-γ % control (γ-interferon production): 777%
IFN-γ U/ml mean (γ-interferon production): 2728 U/ml
Mean Grip Strength (gm) (wobbler mouse): 20 (0-63) gm
